In paper PMC9695908, “Potent Activation of Human but Not Mouse TRPA1 by JT010” (International Journal of Molecular Sciences, 2022) one finds EC50 data, which are given here for one molecule.

This experiment has as its target T1, human TRPA1 (hTRPA1) (Homo sapiens, UniProt O75762).
T1 construct: wild-type hTRPA1 in HEK cells
The experiment is described as follows: Fura-2 Ca2+ imaging and whole-cell patch clamp in HEK-hTRPA1 cells; C621S and F669M mutants reduce response. It counts as cell-based. Background: In patch-clamp work, channel activity is measured electrically.

SMILES strings stand for the structures.

T1 sequence (O75762 whole entry): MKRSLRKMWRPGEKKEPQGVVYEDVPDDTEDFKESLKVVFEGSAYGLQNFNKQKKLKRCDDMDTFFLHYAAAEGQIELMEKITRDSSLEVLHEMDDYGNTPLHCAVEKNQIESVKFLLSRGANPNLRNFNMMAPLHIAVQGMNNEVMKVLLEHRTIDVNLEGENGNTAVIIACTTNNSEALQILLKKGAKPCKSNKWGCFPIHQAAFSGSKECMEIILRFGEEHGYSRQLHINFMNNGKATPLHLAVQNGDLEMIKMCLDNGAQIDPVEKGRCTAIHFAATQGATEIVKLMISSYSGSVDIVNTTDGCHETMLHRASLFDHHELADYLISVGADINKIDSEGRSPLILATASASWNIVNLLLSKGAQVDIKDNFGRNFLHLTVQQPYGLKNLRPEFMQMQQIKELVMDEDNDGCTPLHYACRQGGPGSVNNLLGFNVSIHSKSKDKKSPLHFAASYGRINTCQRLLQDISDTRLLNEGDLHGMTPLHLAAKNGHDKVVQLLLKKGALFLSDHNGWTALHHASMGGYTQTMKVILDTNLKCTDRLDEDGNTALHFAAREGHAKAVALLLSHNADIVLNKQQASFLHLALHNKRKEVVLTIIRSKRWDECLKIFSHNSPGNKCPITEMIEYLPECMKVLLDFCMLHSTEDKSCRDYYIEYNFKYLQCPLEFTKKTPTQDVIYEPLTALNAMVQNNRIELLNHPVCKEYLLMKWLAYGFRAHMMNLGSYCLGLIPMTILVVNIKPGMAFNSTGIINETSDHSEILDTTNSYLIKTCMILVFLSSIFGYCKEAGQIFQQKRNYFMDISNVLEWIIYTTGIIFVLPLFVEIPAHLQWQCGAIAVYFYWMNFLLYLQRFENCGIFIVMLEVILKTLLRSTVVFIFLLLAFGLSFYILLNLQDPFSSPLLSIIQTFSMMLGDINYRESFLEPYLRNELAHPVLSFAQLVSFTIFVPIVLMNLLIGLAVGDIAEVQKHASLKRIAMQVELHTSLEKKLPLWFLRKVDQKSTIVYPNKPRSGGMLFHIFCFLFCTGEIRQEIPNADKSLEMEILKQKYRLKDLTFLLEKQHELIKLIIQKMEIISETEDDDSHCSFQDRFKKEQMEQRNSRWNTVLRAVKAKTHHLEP

As for `COCCCN(C(=O)CCl)c1nc(-c2ccc(OC)cc2)cs1` [JT010], the EC50 – broadly, the concentration needed to bring the measured effect to its halfway point – was about 10 nM.
